Data taken from article PMC2885805 (Pesticide biochemistry and physiology, 2010).

What was measured:
[1] = test system: desensitizing GluCl (cockroach neurons); assay: whole-cell patch clamp, glutamate-induced chloride current; assay type: cell-based, Periplaneta americana; details: 30 μM picrotoxinin; desensitizing component
[2] = test system: non-desensitizing GluCl (cockroach neurons); assay: as above; assay type: cell-based, Periplaneta americana; details: cited from earlier work
cockroach GABA receptor = assay: whole-cell patch clamp, GABA-induced chloride current; assay type: cell-based, Periplaneta americana; details: resting receptor; holding potential −60 mV, symmetric chloride; cited from earlier work
rat GABAA receptor = assay: as above; assay type: cell-based; details: closed channel; rat dorsal root ganglion neurons; cited from earlier work
[3] = test system: desensitizing GluCl (cockroach neurons); assay: whole-cell patch clamp, glutamate-induced chloride current; assay type: cell-based, Periplaneta americana; details: peak current measured; cited from earlier work

In the case of C=C(C)[C@@H]1[C@H]2OC(=O)[C@@H]1[C@]1(O)C[C@H]3O[C@]34C(=O)O[C@H]2[C@]14C [picrotoxinin], the “% inhibition at 30 μM” value [1] is listed as 8.2 ± 2.9% and the IC50 ([2]; non-desensitizing component) is listed as 4100 ± 1000 nM.
For N#Cc1nn(-c2c(Cl)cc(C(F)(F)F)cc2Cl)c(N)c1[S+]([O-])C(F)(F)F (stereo not drawn) [fipronil], the IC50 (cockroach GABA receptor) is listed as 28 nM, the IC50 (rat GABAA receptor) is listed as 1660 nM and the IC50 ([2]; steady-state current measured, use-dependent open-channel block) is listed as 10 ± 0.9 nM. The IC50 [3] was 801 ± 207 nM.
